From US20110118397A1, “RUBBER COMPOSITION” (BRIDGESTONE CORPORATION, priority 2008, published 2011)

Experiments:
[1] = octanol/water partition coefficient (log P) by high-performance liquid chromatography, JIS Z 7260-117 (2006)
Source text: In the present invention (including examples and the like described later), the octanol/water partition coefficient (log P) described above can be measured by a high-performance liquid chromatography according to JIS Z 7260-117 (2006), and it is defined by the following equation:
log P=log(^┌Co┘/^┌Cw┘) • Co: concentration of an examined substance in a 1-octanol layer • Cw: concentration of an examined substance in an aqueous layer
The octanol/water partition coefficients (log P) of the vulcanization accelerators obtained in the following respective production examples were measured by a high-performance liquid chromatography according to JIS Z 7260-117 (2006). A high-performance liquid chromatography manufactured by Shimadzu Corporation was used.

[2] = physchem

| SMILES | melting point | chromatographic logP [1] | chromatographic logP [2] |
| --- | --- | --- | --- |
| CCN(Sc1nc2ccccc2s1)C(C)(C)C [N-ethyl-N-t-butylbenzothiazole-2-sulfenamide] | 60 to 61 °C | 4.9 |  |
| CC(C)N(Sc1nc2ccccc2s1)C(C)(C)C [N-i-propyl-N-t-butylbenzothiazole-2-sulfenamide] |  |  | 5.1 |
| CN(Sc1nc2ccccc2s1)C(C)(C)C [N-methyl-N-t-butylbenzothiazole-2-sulfenamide] | 56 to 58 °C | 4.5 |  |
| CCCCN(Sc1nc2ccccc2s1)C(C)(C)C [N-n-butyl-N-t-butylbenzothiazole-2-sulfenamide] | 55 to 56 °C | 5.8 |  |
| CCCN(Sc1nc2ccccc2s1)C(C)(C)C [N-n-propyl-N-t-butylbenzothiazole-2-sulfenamide] |  | 5.3 |  |
